# Measurements reported in ChEMBL document CHEMBL1201862, “PubChem BioAssay data set” (2004).
#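 Five concentrations, 48 hours, 96-well plates. The concentration for 50% growth inhibition is given as GI50.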 Calls of active or inactive are those of the source. No stated cut-off is given here; in the data, active = GI50 up to about 1.1 µM and inactive = higher.
# Assays:
# Assay in all cases: growth of human tumour cells (NCI), 48 h
# SF-539 = system: SF-539
# UACC-257 = system: UACC-257
# KM12 = system: KM12
# COLO 205 = system: COLO 205
# HCT-116 = system: HCT-116
# UACC-62 = system: UACC-62
# PC-3 = system: PC-3
# MDA-MB-231 = system: MDA-MB-231
# SK-OV-3 = system: SK-OV-3
# NCI/ADR-RES = system: NCI/ADR-RES
# Hs-578T = system: Hs-578T
# SNB-19 = system: SNB-19
# OVCAR-8 = system: OVCAR-8
# SW-620 = system: SW-620
# NCI-H460 = system: NCI-H460
# 786-0 = system: 786-0
# OVCAR-3 = system: OVCAR-3
# CCRF-CEM = system: CCRF-CEM
# EKVX = system: EKVX
# SF-295 = system: SF-295
# NCI-H23 = system: NCI-H23
# MOLT-4 = system: MOLT-4
# NCI-H226 = system: NCI-H226
# HL-60 = system: HL-60
# CAKI-1 = system: CAKI-1
# NCI-H522 = system: NCI-H522
# OVCAR-4 = system: OVCAR-4
# HOP-92 = system: HOP-92
# A549 = system: A549
# MCF7 = system: MCF7
# IGROV-1 = system: IGROV-1
# UO-31 = system: UO-31
# HCT-15 = system: HCT-15
# HOP-62 = system: HOP-62
# MDA-N = system: MDA-N
# SK-MEL-2 = system: SK-MEL-2
# OVCAR-5 = system: OVCAR-5
# SN12C = system: SN12C
# M14 = system: M14
# SNB-75 = system: SNB-75
# SK-MEL-28 = system: SK-MEL-28
# BT-549 = system: BT-549
# SK-MEL-5 = system: SK-MEL-5
# LOX IMVI = system: LOX IMVI
# SF-268 = system: SF-268
# DU-145 = system: DU-145
# ACHN = system: ACHN
# U-251 = system: U-251
# TK-10 = system: TK-10
# RXF 393 = system: RXF 393
# MDA-MB-435 = system: MDA-MB-435
# HCC 2998 = system: HCC 2998
# SR = system: SR
# Malme-3M = system: Malme-3M
# HT-29 = system: HT-29
# A498 = system: A498
# RPMI-8226 = system: RPMI-8226
# K562 = system: K562
smiles,measurement,setting,value
C=C(Nc1nc2ccc(C)cc2s1)C(=O)C(CC)C(=O)C(CC)CC1C(=O)NC(=O)NC1=O (centres undefined),GI50,SF-539,> 100 µM (inactive)
same,GI50,UACC-257,> 100 µM (inactive)
same,GI50,KM12,> 100 µM (inactive)
same,GI50,COLO 205,> 100 µM (inactive)
same,GI50,HCT-116,> 100 µM (inactive)
same,GI50,UACC-62,> 100 µM (inactive)
same,GI50,PC-3,> 100 µM (inactive)
same,GI50,MDA-MB-231,> 100 µM (inactive)
same,GI50,SK-OV-3,> 100 µM (inactive)
same,GI50,NCI/ADR-RES,> 100 µM (inactive)
same,GI50,Hs-578T,> 100 µM (inactive)
same,GI50,SNB-19,> 100 µM (inactive)
same,GI50,OVCAR-8,> 100 µM (inactive)
same,GI50,SW-620,> 100 µM (inactive)
same,GI50,NCI-H460,> 100 µM (inactive)
same,GI50,786-0,> 100 µM (inactive)
same,GI50,OVCAR-3,> 100 µM (inactive)
same,GI50,CCRF-CEM,> 100 µM (inactive)
same,GI50,EKVX,> 100 µM (inactive)
same,GI50,SF-295,> 100 µM (inactive)
same,GI50,NCI-H23,> 100 µM (inactive)
same,GI50,MOLT-4,> 100 µM (inactive)
same,GI50,NCI-H226,> 100 µM (inactive)
same,GI50,HL-60,> 100 µM (inactive)
same,GI50,CAKI-1,> 100 µM (inactive)
same,GI50,NCI-H522,> 100 µM (inactive)
same,GI50,OVCAR-4,> 100 µM (inactive)
same,GI50,HOP-92,> 100 µM (inactive)
same,GI50,A549,> 100 µM (inactive)
same,GI50,MCF7,> 100 µM (inactive)
same,GI50,IGROV-1,> 100 µM (inactive)
same,GI50,UO-31,> 100 µM (inactive)
same,GI50,HCT-15,> 100 µM
same,GI50,HOP-62,32 µM (inactive)
same,GI50,MDA-N,> 100 µM (inactive)
same,GI50,SK-MEL-2,> 100 µM (inactive)
same,GI50,OVCAR-5,> 100 µM (inactive)
same,GI50,SN12C,> 100 µM (inactive)
same,GI50,M14,> 100 µM (inactive)
same,GI50,SNB-75,> 100 µM (inactive)
same,GI50,SK-MEL-28,> 100 µM (inactive)
same,GI50,BT-549,> 100 µM (inactive)
same,GI50,SK-MEL-5,> 100 µM (inactive)
same,GI50,LOX IMVI,> 100 µM (inactive)
same,GI50,SF-268,> 100 µM (inactive)
same,GI50,DU-145,> 100 µM (inactive)
same,GI50,ACHN,> 100 µM (inactive)
same,GI50,U-251,> 100 µM (inactive)
same,GI50,TK-10,> 100 µM (inactive)
same,GI50,RXF 393,> 100 µM (inactive)
same,GI50,MDA-MB-435,> 100 µM (inactive)
same,GI50,HCC 2998,> 100 µM (inactive)
CCOC(=O)C(CCc1ncnc2c1ncn2Cc1ccccc1)(CCc1ncnc2c1ncn2Cc1ccccc1)C(=O)OCC,GI50,SF-539,30.3 µM (inactive)
same,GI50,UACC-257,31.7 µM (inactive)
same,GI50,KM12,46.9 µM (inactive)
same,GI50,COLO 205,24.2 µM (inactive)
same,GI50,HCT-116,51.4 µM (inactive)
same,GI50,UACC-62,26.2 µM (inactive)
same,GI50,SR,26.4 µM (inactive)
same,GI50,PC-3,27 µM (inactive)
same,GI50,MDA-MB-231,53.3 µM (inactive)
same,GI50,NCI/ADR-RES,49.7 µM (inactive)
same,GI50,Hs-578T,83.2 µM (inactive)
same,GI50,SNB-19,> 100 µM (inactive)
same,GI50,OVCAR-8,64.1 µM (inactive)
same,GI50,SW-620,> 100 µM (inactive)
same,GI50,NCI-H460,40.4 µM (inactive)
same,GI50,786-0,41.1 µM (inactive)
same,GI50,OVCAR-3,90.8 µM (inactive)
same,GI50,Malme-3M,61.7 µM (inactive)
same,GI50,EKVX,63.7 µM (inactive)
same,GI50,SF-295,70.3 µM (inactive)
same,GI50,NCI-H23,46.1 µM (inactive)
same,GI50,MOLT-4,13.4 µM (inactive)
same,GI50,NCI-H226,27.7 µM (inactive)
same,GI50,HL-60,38.3 µM (inactive)
same,GI50,CAKI-1,51.8 µM (inactive)
same,GI50,NCI-H522,33.9 µM (inactive)
same,GI50,HT-29,42.9 µM (inactive)
same,GI50,OVCAR-4,59.4 µM (inactive)
same,GI50,HOP-92,69.7 µM (inactive)
same,GI50,A549,39.2 µM (inactive)
same,GI50,MCF7,37.9 µM (inactive)
same,GI50,IGROV-1,89.9 µM (inactive)
same,GI50,UO-31,2.64 µM (inactive)
same,GI50,HCT-15,52.7 µM
same,GI50,HOP-62,> 100 µM (inactive)
same,GI50,MDA-N,33 µM (inactive)
same,GI50,SK-MEL-2,44.1 µM (inactive)
same,GI50,OVCAR-5,> 100 µM (inactive)
same,GI50,SN12C,58.6 µM (inactive)
same,GI50,M14,54.6 µM (inactive)
same,GI50,A498,47.4 µM (inactive)
same,GI50,SK-MEL-28,98.9 µM (inactive)
same,GI50,RPMI-8226,23.6 µM (inactive)
same,GI50,BT-549,76.6 µM (inactive)
same,GI50,K562,42.5 µM (inactive)
same,GI50,SK-MEL-5,48.5 µM (inactive)
same,GI50,LOX IMVI,44.4 µM (inactive)
same,GI50,SF-268,69.5 µM (inactive)
same,GI50,DU-145,89.3 µM (inactive)
same,GI50,ACHN,81.8 µM (inactive)
same,GI50,U-251,62.1 µM (inactive)
same,GI50,TK-10,82.6 µM (inactive)
same,GI50,RXF 393,32.4 µM (inactive)
same,GI50,MDA-MB-435,52.1 µM (inactive)
same,GI50,HCC 2998,19.9 µM (inactive)
CCOC(=O)c1cn2c(n1)sc1cccc(C)c12,GI50,SF-539,> 100 µM (inactive)
same,GI50,UACC-257,> 100 µM (inactive)
same,GI50,KM12,> 100 µM (inactive)
same,GI50,COLO 205,> 100 µM (inactive)
same,GI50,HCT-116,> 100 µM (inactive)
same,GI50,UACC-62,> 100 µM (inactive)
same,GI50,PC-3,> 100 µM (inactive)
same,GI50,MDA-MB-231,> 100 µM (inactive)
same,GI50,SK-OV-3,> 100 µM (inactive)
same,GI50,NCI/ADR-RES,> 100 µM (inactive)
same,GI50,Hs-578T,21.7 µM (inactive)
same,GI50,SNB-19,> 100 µM (inactive)
same,GI50,OVCAR-8,> 100 µM (inactive)
same,GI50,NCI-H460,71.8 µM (inactive)
same,GI50,786-0,> 100 µM (inactive)
same,GI50,OVCAR-3,> 100 µM (inactive)
same,GI50,Malme-3M,> 100 µM (inactive)
same,GI50,EKVX,52.6 µM (inactive)
same,GI50,SF-295,> 100 µM (inactive)
same,GI50,NCI-H23,> 100 µM (inactive)
same,GI50,NCI-H226,> 100 µM (inactive)
same,GI50,CAKI-1,> 100 µM (inactive)
same,GI50,NCI-H522,> 100 µM (inactive)
same,GI50,A549,> 100 µM (inactive)
same,GI50,MCF7,> 100 µM (inactive)
same,GI50,IGROV-1,47.3 µM (inactive)
same,GI50,UO-31,72.8 µM (inactive)
same,GI50,HCT-15,> 100 µM
same,GI50,HOP-62,> 100 µM (inactive)
same,GI50,MDA-N,> 100 µM (inactive)
same,GI50,OVCAR-5,> 100 µM (inactive)
same,GI50,M14,> 100 µM (inactive)
same,GI50,SNB-75,> 100 µM (inactive)
same,GI50,BT-549,> 100 µM (inactive)
same,GI50,SK-MEL-5,63.4 µM (inactive)
same,GI50,LOX IMVI,> 100 µM (inactive)
same,GI50,SF-268,> 100 µM (inactive)
same,GI50,DU-145,> 100 µM (inactive)
same,GI50,ACHN,> 100 µM (inactive)
same,GI50,TK-10,> 100 µM (inactive)
same,GI50,RXF 393,> 100 µM (inactive)
same,GI50,HCC 2998,> 100 µM (inactive)
